Assay results as given in patent US20220389477A1, “METHOD FOR EVALUATING ANTIBIOTIC SUSCEPTIBILITY” (Vrije Universiteit Brussel, priority 2019, published 2022).
≈ marks a conversion by molar mass, not a printed value. Read-outs that look alike come from different tables or passages of the source.

Test system: Klebsiella pneumonia culture
Assay: Optical third-derivative MIC method, culture in broth
Format: cell-based
Conditions: for HR? at MIC (25%) / HR? at MIC (40%) / HR? at MIC (60%) / HR? at MIC (75%): ratio MIC T2/T1; for MIC: Klebsiella pneumoniae
Text: The method of FIG. 1 starts at a time equal to zero, t0 (1). Preferably, said t0 is the moment a pure bacteria culture is finished being prepared. Alternatively, said t0 is the moment all wells contain both said bacteria culture and said antimicrobial drug. After the starting of the experiment each well is periodically illuminated with a light source and the intensity of the transmitted light is detected with a photodetector (2). Preferably, each well is illuminated and the intensity of the transmitted light is detected every hour (2). More preferably, each well is illuminated and the intensity of the transmitted light is detected every 5 to 15 min. After a predetermined time length, preferably after 4 hours, a first, a second and a third derivative of said measured intensity is calculated (3) in a first and a second time frame for each well. Preferably, said second time frame is the last measured time frame after the test has been running for said predetermined time length, and said first time frame is the time frame preceding the second time frame. More preferably, said first time frame is between two and three hours and said second time frame is between three and four hours. After the calculation of said derivatives, said first derivative in said second time frame of said reference well is compared to a growth speed threshold value (4). Preferably, said growth speed threshold value is 0.166 (4). If said first derivative in said second time frame of said reference well is larger than or equal to said growth speed threshold value said bacteria culture is classified as Type I (4). If said first derivative in said second time frame of said reference well is smaller than said growth speed threshold value said bacteria culture is classified as Type II (4). Subsequently, independent of the classification of the bacteria culture according to the two types, the method comprises the following steps which are performed for each well or for all wells except said reference well. Both said first and said second time frames are evaluated to see if there is an inflection point present in the second derivative in said first and/or said second time frame (5).
If said first and/or said second time frame comprise said inflection point than said third derivative in said first time frame is compared to said third derivative in said second time frame (6). If said third derivative in said first time frame is larger than said third derivative in said second time frame, then said first time frame and said second time frame are selected as a first and second time frame to be used in a minimal inhibitory concentration determination method (10). If said third derivative in said first time frame is not larger than said third derivative in said second time frame, then said well is illuminated again after a certain time period, preferably an hour, more preferably 5 to 15 min after said predetermined time length said, with a light source and the intensity of the transmitted light is detected with a photodetector forming a new time frame subsequent to said second time frame (7). A third derivative, and possibly also a first and/or a second derivative, is calculated in said new time frame (7). Further, in step (7) a new first time frame is put equal to said second time frame and a new second time frame to equal to said new time frame. Subsequently, said third derivative in said new first time frame is compared to said third derivative in said new second time frame (8). If said derivative in said new first time frame is larger than said third derivative in said new second time frame, then said new first time frame and said new second time frame are selected as a first and second time frame to be used in a minimal inhibitory concentration determination method (10). […]

C[C@@H](O)[C@H]1C(=O)N2C(C(=O)O)=C(SCCN=CN)C[C@H]12 [imipenem]
HR? at MIC (25%) (KP/38.3002, Table 5): no (If the ratio of the MIC value in the second time frame over the MIC value in the first time frame is lower than or equal to 4 then the ratio is labelled not to be heteroresistant) | HR? at MIC (40%) (KP/38.3002, Table 5): yes (If the ratio of the MIC value in the second time frame over the MIC value in the first time frame is higher than or equal to 8 then the ratio is labelled to be heteroresistant) | HR? at MIC (60%) (KP/38.3002, Table 5): yes (If the ratio of the MIC value in the second time frame over the MIC value in the first time frame is higher than or equal to 8 then the ratio is labelled to be heteroresistant) | HR? at MIC (75%) (KP/38.3002, Table 5): yes (If the ratio of the MIC value in the second time frame over the MIC value in the first time frame is higher than or equal to 8 then the ratio is labelled to be heteroresistant) | HR? at MIC (25%) (KP/38.3002, Table 10): yes (If the ratio of the MIC value in the second time frame over the MIC value in the first time frame is higher than or equal to 8 then the ratio is labelled to be heteroresistant) | HR? at MIC (40%) (KP/38.3002, Table 10): yes (If the ratio of the MIC value in the second time frame over the MIC value in the first time frame is higher than or equal to 8 then the ratio is labelled to be heteroresistant) | HR? at MIC (60%) (KP/38.3002, Table 10): yes (If the ratio of the MIC value in the second time frame over the MIC value in the first time frame is higher than or equal to 8 then the ratio is labelled to be heteroresistant) | HR? at MIC (75%) (KP/38.3002, Table 10): yes (If the ratio of the MIC value in the second time frame over the MIC value in the first time frame is higher than or equal to 8 then the ratio is labelled to be heteroresistant) | HR? at MIC (40%) (KP/38.3002, Table 11): yes (If the ratio of the MIC value in the second time frame over the MIC value in the first time frame is higher than or equal to 8 then the ratio is labelled to be heteroresistant) | HR? at MIC (60%) (KP/38.3002, Table 11): yes (If the ratio of the MIC value in the second time frame over the MIC value in the first time frame is higher than or equal to 8 then the ratio is labelled to be heteroresistant) | HR? at MIC (75%) (KP/38.3002, Table 11): yes (If the ratio of the MIC value in the second time frame over the MIC value in the first time frame is higher than or equal to 8 then the ratio is labelled to be heteroresistant) | HR? at MIC (25%) (KP/153.4346): no (If the ratio of the MIC value in the second time frame over the MIC value in the first time frame is lower than or equal to 4 then the ratio is labelled not to be heteroresistant) | HR? at MIC (40%) (KP/153.4346): no (If the ratio of the MIC value in the second time frame over the MIC value in the first time frame is lower than or equal to 4 then the ratio is labelled not to be heteroresistant) | HR? at MIC (60%) (KP/153.4346): yes (If the ratio of the MIC value in the second time frame over the MIC value in the first time frame is higher than or equal to 8 then the ratio is labelled to be heteroresistant) | HR? at MIC (75%) (KP/153.4346): yes (If the ratio of the MIC value in the second time frame over the MIC value in the first time frame is higher than or equal to 8 then the ratio is labelled to be heteroresistant) | MIC (3 h, KP/38.3002, FIG. 5C, Table 5, 3 h-4 h, read-out: MIC (25%) T1): 16 µg/mL (≈ 53.4 µM) | MIC (3 h, KP/38.3002, FIG. 5C, Table 5, 3 h-4 h, read-out: MIC (40%) T1): 0.25 µg/mL (≈ 0.835 µM) | MIC (3 h, KP/38.3002, FIG. 5C, Table 5, 3 h-4 h, read-out: MIC (60%) T1): 0.25 µg/mL (≈ 0.835 µM) | MIC (3 h, KP/38.3002, FIG. 5C, Table 5, 3 h-4 h, read-out: MIC (75%) T1): 0.25 µg/mL (≈ 0.835 µM) | MIC (3 h, KP/153.4346, 3 h-4 h, read-out: MIC (25%) T1): > 256 µg/mL | MIC (3 h, KP/153.4346, 3 h-4 h, read-out: MIC (40%) T1): > 256 µg/mL | MIC (3 h, KP/153.4346, 3 h-4 h, read-out: MIC (60%) T1): 0.5 µg/mL (≈ 1.67 µM) | MIC (3 h, KP/153.4346, 3 h-4 h, read-out: MIC (75%) T1): 0.5 µg/mL (≈ 1.67 µM) | MIC (3 h, MP/072.3489, 3 h-4 h, read-out: MIC (25%) T1): 0.5 µg/mL (≈ 1.67 µM) | MIC (3 h, MP/072.3489, 3 h-4 h, read-out: MIC (40%) T1): 0.5 µg/mL (≈ 1.67 µM) | MIC (3 h, MP/072.3489, 3 h-4 h, read-out: MIC (60%) T1): 0.35 µg/mL (≈ 1.17 µM) | MIC (3 h, MP/072.3489, 3 h-4 h, read-out: MIC (75%) T1): < 0.125 µg/mL | MIC (4 h, KP/38.3002, FIG. 5C, Table 5, 4 h-5 h, read-out: MIC (25%) T2): 16 µg/mL (≈ 53.4 µM) | MIC (4 h, KP/38.3002, FIG. 5C, Table 5, 4 h-5 h, read-out: MIC (40%) T2): 8 µg/mL (≈ 26.7 µM) | MIC (4 h, KP/38.3002, FIG. 5C, Table 5, 4 h-5 h, read-out: MIC (60%) T2): 8 µg/mL (≈ 26.7 µM) | MIC (4 h, KP/38.3002, FIG. 5C, Table 5, 4 h-5 h, read-out: MIC (75%) T2): 8 µg/mL (≈ 26.7 µM) | MIC (4 h, KP/153.4346, 4 h-5 h, read-out: MIC (25%) T2): > 256 µg/mL | MIC (4 h, KP/153.4346, 4 h-5 h, read-out: MIC (40%) T2): > 256 µg/mL | MIC (4 h, KP/153.4346, 4 h-5 h, read-out: MIC (60%) T2): 16 µg/mL (≈ 53.4 µM) | MIC (4 h, KP/153.4346, 4 h-5 h, read-out: MIC (75%) T2): 16 µg/mL (≈ 53.4 µM) | MIC (4 h, MP/072.3489, 4 h-5 h, read-out: MIC (25%) T2): 16 µg/mL (≈ 53.4 µM) | MIC (4 h, MP/072.3489, 4 h-5 h, read-out: MIC (40%) T2): 8 µg/mL (≈ 26.7 µM) | MIC (4 h, MP/072.3489, 4 h-5 h, read-out: MIC (60%) T2): 8 µg/mL (≈ 26.7 µM) | MIC (4 h, MP/072.3489, 4 h-5 h, read-out: MIC (75%) T2): 8 µg/mL (≈ 26.7 µM) | MIC (5 h, KP/38.3002, FIG. 5H, both repetitions, read-out: MIC value determined by the method): 16 µg/mL (≈ 53.4 µM) | MIC (KP/38.3002, FIG. 5C, overall conclusion, read-out: MIC value determined by the method): 16 µg/mL (≈ 53.4 µM) | MIC (KP/38.3002, FIG. 5H repetition, Table 10, 3 h-4 h, read-out: MIC (25%) T1): 0.5 µg/mL (≈ 1.67 µM)
